Data set [1] relates to sheep red blood cells (sRBCs). Description: Hemolytic activity. It counts as cell-based. Conditions: 100 μM peptide, 4% (v/v) sRBCs in PBS, 1 h at 37 °C, absorbance 405 nm; three measurements averaged. The protocol:
The hemolytic activity of all Pro-peptides were tested against sheep red blood cells (sRBCs) as described in previous reports. Fresh sRBCs were washed three times with phosphate-buffered saline (PBS) followed by centrifugation for 5 min at 2500 rpm at 4 °C. Peptides (0.2 to 100 μM) in PBS were incubated with 4% (v/v) sRBCs for 1 h at 37 °C. The contents were then centrifuged for 5 min at 1000 × g. The absorbance of the supernatant at 405 nm was used as a measure of hemolysis, and three times independent measurements were averaged. As a control, 100% hemolysis was obtained by treating sRBCs with melittin.

Data set [2] relates to LPS-stimulated RAW264.7 cells. Description: Nitrite (NO) production, Griess assay. It counts as cell-based, mouse. Conditions: 25 μM, 1 h pretreatment, LPS 20 ng/mL for 16 h. The protocol:
The presence of nitrite in culture media strongly validates the indication of NO production which was assessed by Griess assay. Briefly, RAW264.7 cell (1 × 10^5) were seeded in s 96-well plate in triplicate. Peptides (1, 5, 25, and 50 μM) were pretreated 1 h and then stimulated with 20 ng/mL of LPS purified from E. coli O111:B4 (Sigma-Aldrich, St. Louis, MO, USA) for 16 h. After incubation, equal volumes of culture media and Griess reagent were added and color change was read at 540 nm. The concentration of nitrite content was assessed using a standard curve of sodium nitrite. In addition, release of inflammatory cytokines including TNF-α and IL-6 in the culture media was quantified using an enzyme-linked immunosorbent assays kit (ELISA; R&D Systems, Minneapolis, MN, USA) and the assay was performed according to the kit protocol. The assay was conducted in triplicate, and the concentrations of TNF-α and IL-6 were evaluated by measuring the absorbance at 450 nm using a microplate reader.
For orientation: The Griess reaction detects nitrite, a stable product of nitric oxide.

A further data set can be described thus: Calcein leakage assay. As to conditions: 4 µM peptide, 3 min after peptide exposure, EYPE/EYPG (7:3, w/w) LUVs, pH 7.4, fluorescence ex 490/em 520 nm; triplicate. As to the method:
We investigated the modes of action of the peptides by measuring their abilities to permeate model phospholipid membranes and Escherichia coli. The membrane-permeabilizing ability of the peptides was measured by monitoring the release of fluorescent calcein from liposomes of various compositions. We employed negatively-charged large unilamellar vesicles (LUVs) composed of 7:3 (w/w) egg yolk L-α-phosphatidylethanolamine (EYPE)/egg yolk L-α-phosphatidylglycerol (EYPG) to mimic gram-negative bacterial cells. The percentage of calcein leakage 3 min after peptide exposure was used to assess its ability to permeate the membrane. […] All Pro-peptides induced significant dye release against the negatively charged EYPE/EYPG LUVs, implying that they potently permeate bacterial cell component membranes. […]
Calcein-entrapped LUVs composed of egg yolk phosphatidylethanolamine (EYPE)/egg yolk phosphatidylglycerol EYPG (7:3, w/w) were prepared by vortexing the dried lipid in dye buffer solution (70 mM calcein, 10 mM Tris, 150 mM NaCl, and 0.1 mM Ethylenediaminetetraacetic acid (EDTA), pH 7.4) as described previously. The leakage of calcein from the LUVs was monitored by measuring fluorescence intensity at an excitation wavelength of 490 nm and an emission wavelength of 520 nm on a model RF-5301PC spectrophotometer (Shimadzu, Kyoto, Japan). […]

The next data set concerns TLR4. In words: Immunoblot of TLR4 expression. It counts as cell-based, mouse. As to conditions: 20 μM peptide, LPS 50 ng/mL, RAW264.7 cells. The protocol: The protein content of all experimental groups of RAW264.7 cells in triplicate were extracted using radio immunoprecipitation buffer (RIPA) containing protease phosphatase inhibitor. The supernatant was collected by centrifugation (12,000× g) at 4 °C for 20 min and stored at −80 °C until further use. Similarly, cytoplasmic and nuclear fractionation was extracted using an NE-PER Nuclear and Cytoplasmic Extraction Reagents kit (ThermoFisher Scientific, MA, USA), according to the manufacturer’s protocol. Protein contents were quantified using a bicinchoninic acid (BCA) protein assay kit (Thermo Fisher Scientific Inc., MA, USA) and 30 μg (v/v) was electrophoresed by SDS-PAGE using a 10% (w/v) polyacrylamide resolving gel, electro-transferred to a PVDF membrane, and then blocked using 5% (w/v) non-fat milk. The membranes were incubated with primary antibodies (1:1000 dilution) at 4 °C overnight, followed by incubation with their respective secondary antibody for 1 h at room temperature. The antigen-antibody complexes were examined using the WestGlow^TM Chemiluminescent Substrate (Biomax Co., Ltd, Seoul, South Korea) under iBright™ CL1000 Imaging System (Thermo Fisher Scientific Inc., MA, USA). The densitometric analysis of protein signals were quantified using the Image J software (Version 1.52, National Institutes of Health, MD, USA).
(Immunoblotting shows a protein as a band on a membrane.)

In another data set the test system is chymotrypsin. In words: Protease stability assay (antimicrobial activity after protease digestion). It counts as in vitro ADME. As to conditions: peptide–enzyme 10,000:1, PBS, 6 h at 37 °C preincubation, then E. coli and A. baumannii, 16 h at 37 °C, 600 nm, repeated three times. The protocol:
(§1) For stability analysis, all Pro-peptides at their MICs were incubated with trypsin and chymotrypsin at the ratio of 10,000:1 (peptide–enzyme) in PBS for 6 h at 37 °C. After incubation, 100 μL of peptide-protease mixture was added to the 100 μL bacterial suspension (E. coli and A. baumannii, 2 × 10^5 CFU/mL) and further incubated for 16 h at 37 °C. Melittin was used as standard peptide, and bacterial suspension without peptide and protease served as control. The experiment was repeated three times, and the extent of bacterial growth was measured at 600 nm using a microplate reader.

In another data set the test system is trypsin. The description is as above. It counts as in vitro ADME. Conditions: peptide–enzyme 10,000:1, PBS, 6 h at 37 °C preincubation, then E. coli and A. baumannii, 16 h at 37 °C, 600 nm, repeated three times. The protocol: as §1
The subject of the next data set is ICR mice. In words: Cytotoxicity in vivo (serum AST, ALT, BUN). Further details: species or system mouse. As to conditions: single intraperitoneal dose 1 mg/kg and 5 mg/kg, 24 h, 5 mice/group. As to the method: A preliminary toxicity study was conducted to determine the cytotoxic effect of Pro10-1 and Pro10-1D on ICR mice. Four-week-old mice (n = 5) were injected intraperitoneally with peptides (1 mg/Kg and 5 mg/Kg, respectively) for 24 h. After treatment, blood was withdrawn and serum was collected and then subjected to AST, ALT, and BUN analyses.

Data on one compound can be found in article PMC7504360 (International Journal of Molecular Sciences, 2020).

Square brackets hold non-standard residues; d marks the D form. Peptide text beside a SMILES is read from it.

For `CC[C@@H](C)[C@@H](NC(=O)[C@@H](C)NC(=O)[C@@H](CC(C)C)NC(=O)[C@@H](Cc1c[nH]c2ccccc12)NC(=O)[C@@H](CC(C)C)NC(=O)[C@@H](CCCNC(=N)N)NC(=O)[C@H](N)CCCNC(=N)N)C(=O)N[C@H](Cc1c[nH]c2ccccc12)C(=O)N[C@H](CCCNC(=N)N)C(=O)N[C@H](CCCNC(=N)N)C(N)=O` [Pro10-1D] (H-[dR][dR][dL][dW][dL][dA][dI][dW][dR][dR]-NH2; N-terminus assumed), in data set [1], the hemolysis entry is listed as “no hemolytic activity”. Also, the “inhibition of LPS-induced NO (nitrite) level” value in data set [2] is recorded as “effective inhibition”. For the same compound, in the data set “Calcein leakage assay”, the calcein leakage entry was “more than 80%”. The “LPS-induced TLR4 expression” value in the data set with TLR4 is listed as “effectively suppressed”. For the same compound, the “protease resistance (retention of bactericidal activity)” value was “substantial protease resistance” in the data set with chymotrypsin, “retained its bactericidal activity” in the data set on chymotrypsin (listed as enantiomeric Pro10-1), “substantial protease resistance” in the data set on trypsin and “retained its bactericidal activity” with trypsin (listed as enantiomeric Pro10-1). Further, the “AST, ALT, and BUN elevation in serum” value in the data set with ICR mice is listed as “did not observe any clinical significance”.
